Source: patent US9522123B2, “Use of one or a combination of phyto-cannabinoids in the treatment of epilepsy” (GW Pharma Limited, priority 2009, dated 2016)

How the values were obtained:
[1] = tested on: penicillin-induced seizures; assay: Penicillin-induced model of partial seizures; format: in vivo, rat; settings: for development of the most severe seizures (tonic-clonic seizures without postural control): 150 IU penicillin
Description: CBD (1, 10 and 100 mg/kg) or CBD vehicle (1:1:18 ethanol:Cremophor: 0.9% w/v NaCl) was administered i.p. to adult male Wistar rats (>250 g). One week prior to this, animals had been surgically implanted with a cannula into the right lateral ventricle under anaesthesia. One hour after CBD administration, 150 IU penicillin was infused into the right lateral ventricle in 1.5 μl saline solution over one minute and seizure behaviour video recorded for two hours.
Following detailed examination of animal responses to penicillin alone (using data obtained from vehicle control groups, a finalised seizure scoring scale for penicillin-induced partial seizures has been derived. The following scoring system which was derived from several existing and published scoring systems for this model, will therefore be used for analysis of drug effects upon such seizures.

PTZ-induced seizures = assay: PTZ (pentylenetetrazole)-induced model of generalised seizures; format: in vivo, rat
[2] = tested on: pilocarpine-induced seizures; assay: Pilocarpine-induced model of temporal lobe seizures; format: in vivo, rat; settings: pilocarpine 380 mg/kg
Description: (§1) Pure THCV was injected intra-peritoneally (IP) in the standard vehicle (1:1:18 ethanol:Cremophor:0.9% w/v NaCl) at doses of 0.025, 0.25 and 2.5 mg/kg alongside animals that received vehicle alone at a matched volume (n≧14 for each group). 15 minutes later methylscopolamine (1 mg/kg; to reduce peripheral muscarinic effects of pilocarpine) was administered followed, 45 minutes later by pilocarpine (380 mg/kg, IP) administration.
as §1, with “CBD” for “THCV”, “1, 10” for “0.025, 0.25”, “100” for “2.5”

[3] = tested on: seizures in institutionalized children; settings: 5 institutionalized children not responding to phenobarbital and phenytoin; cited from earlier work

C=C(C)[C@@H]1CCC(C)=C[C@H]1c1c(O)cc(CCCCC)cc1O [CBD, cannabidiol]
frequency with which animals experienced the most severe seizures ([1]; 10 mg/kg CBD vs vehicle, p=0.071): near-significant effect | development of the most severe seizures (tonic-clonic seizures without postural control) ([1]; 100 mg/kg CBD i.p., p=0.001): completely prevented development | frequency with which animals experienced the most severe seizures ([1]; 100 mg/kg CBD vs vehicle, p=0.006): significant decrease | median severity of penicillin-induced seizures ([1]; 100 mg/kg CBD vs vehicle, p=0.012): significantly reduced | mortality compared to vehicle ([1]; 100 mg/kg CBD, p=0.057): near-significant effect | development of the most severe seizures (tonic-clonic seizures without postural control) ([1]; 1 and 10 mg/kg CBD i.p., p=0.076 for both): Near-significant decreases | proportion of animals that remained seizure-free ([1]; all doses of CBD (1, 10 and 100 mg/kg), p<0.001): significantly increased | animals that died (mortality) (PTZ-induced seizures; 100 mg/kg CBD IP, 60 minutes before 80 mg/kg PTZ, p<0.001 vs vehicle): 6.7% | percentage mortality vs control ([2]; 10 mg/kg CBD): significant increase | percentage duration of time spent in a tonic-clonic state compared to the total duration of the seizure period ([2]; CBD 1 mg/kg and 100 mg/kg): significantly reduced | percentage of animals exhibiting tonic-clonic seizures ([2]; CBD 1 mg/kg and 100 mg/kg): significantly reduced | mean frequency of all other seizure scores ([2]; CBD 1, 10, 100 mg/kg vs control): no significant differences | mean tonic-clonic frequency ([2]; CBD all doses tested (1, 10, 100 mg/kg)): significant reduction | percentage of animals manifesting with bilateral forelimb clonus with rearing and falling ([2]; CBD doses >1 mg/kg): significantly reduces | percentage of animals showing unilateral forelimb clonus ([2]; CBD doses >1 mg/kg): significant decreases | latency to the onset of seizure ([2]; pure CBD 1, 10, 100 mg/kg IP): No significant effect | mean maximum severity of seizure ([2]; pure CBD 1, 10, 100 mg/kg): no effect | percentage of animals exhibiting bilateral forelimb clonus ([2]; pure CBD 1, 10, 100 mg/kg): no significant differences

CCCCCc1cc(O)c2c(c1)OC(C)(C)[C@@H]1CCC(C)=C[C@@H]21 [THC, tetrahydrocanibinol]
seizure outcome [3]: One became entirely free of seizures, one became almost completely free of seizures, and the other three did no worse than before

CCCc1cc(O)c2c(c1)OC(C)(C)[C@@H]1CCC(C)=C[C@@H]21 [THCV, tetrahydrocannabivarin]
latency to first manifestation of seizure-like behaviour (PTZ-induced seizures; pure THCV 0.025, 0.25, 2.5 mg/kg vs vehicle, 80 mg/kg PTZ): increased latency | latency to score of [5] (PTZ-induced seizures; pure THCV all doses, 80 mg/kg PTZ, p=0.013 at highest dose): increased latencies, reaching a significant level at the highest dose of THCV | latency to score of [3] (PTZ-induced seizures; pure THCV all doses, 80 mg/kg PTZ, p=0.017 at highest dose): increased latencies, reaching a significant level at the highest dose of THCV | delay of seizure onset (latency to first seizure sign) (PTZ-induced seizures; pure THCV highest dose 2.5 mg/kg, 80 mg/kg PTZ, p=0.02): delay of onset was significant | duration of PTZ-induced seizures in animals that survived (PTZ-induced seizures; pure THCV medium dose 0.25 mg/kg vs vehicle, 80 mg/kg PTZ, p=0.03): significantly shorter | percentage of animals showing bilateral forelimb clonus with rearing and falling ([2]; 0.25 mg/kg THCV): significant increase | percentage of animals showing bilateral forelimb clonus with rearing and falling ([2]; THCV doses other than 0.25 mg/kg (0.025, 2.5 mg/kg)): this effect was not seen at any other dose | latency to the onset of seizure ([2]; pure THCV 0.025, 0.25, 2.5 mg/kg IP): No significant effect | mean maximum severity of seizure ([2]; pure THCV 0.025, 0.25, 2.5 mg/kg): no effect | percentage mortality vs control ([2]; pure THCV any dose): No significant change | percentage of animals showing bilateral forelimb clonus ([2]; pure THCV any dose): no significant changes | percentage of animals showing tonic-clonic seizures ([2]; pure THCV any dose): no significant changes | percentage of animals showing unilateral forelimb clonus ([2]; pure THCV any dose): no significant changes
